Experimental data from patent publication US9708306B2, “Benzimidazole derivatives and preparation process and pharmaceutical uses thereof” (WUHAN LL SCIENCE AND TECHNOLOGY DEVELOPMENT CO., LTD, priority 2015, dated 2017).
Values joined by “and” are separate entries in the source; they are usually repeats but may differ in a detail not shown here. Equal values may be shown once. Read-outs that look alike come from different tables or passages of the source.

Legend:
[1] = system: renovascular hypertensive rats; assay: Effect on reducing blood pressure of renovascular hypertensive rats by single oral administration; assay type: in vivo, Wistar rats; conditions: for change in vivo at 0.5 mg/kg / inhibition in vivo at 0.5 mg/kg / change in vivo at 1 mg/kg / inhibition in vivo at 1 mg/kg / change in vivo at 2 mg/kg / inhibition in vivo at 2 mg/kg: Rattus norvegicus, single oral administration; for change in vivo at 0.5 mg/kg / change in vivo at 1 mg/kg / change in vivo at 2 mg/kg: RHR, read-out: Variations on heart rate; for inhibition in vivo at 0.5 mg/kg / inhibition in vivo at 1 mg/kg / inhibition in vivo at 2 mg/kg: two-kidney one-clip RHR, measured 1-10 h, read-out: Maximum blood pressure reduction
[2] = system: spontaneously hypertensive rats (SHR); assay: Effect on reducing blood pressure of spontaneously hypertensive rats (SHR) by multiple oral administrations; assay type: in vivo; conditions: for inhibition in vivo at 0.5 mg/kg / inhibition in vivo at 1 mg/kg / inhibition in vivo at 2 mg/kg: Rattus norvegicus
normal rats = assay: Effect on blood pressure of normal rats by single oral administration; assay type: in vivo, Wistar rats; conditions: for inhibition in vivo at 0.5 mg/kg / inhibition in vivo at 1 mg/kg / inhibition in vivo at 2 mg/kg / change in vivo at 0.5 mg/kg / change in vivo at 1 mg/kg / change in vivo at 2 mg/kg: Rattus norvegicus, po, single, normal rats; for inhibition in vivo at 0.5 mg/kg / inhibition in vivo at 1 mg/kg / inhibition in vivo at 2 mg/kg: 8 h, read-out: blood pressure reduction at 8 h after the administration; for inhibition in vivo at 0.5 mg/kg / change in vivo at 0.5 mg/kg: 0.5 mg/kg p.o.; for inhibition in vivo at 1 mg/kg / change in vivo at 1 mg/kg: 1.0 mg/kg p.o.; for inhibition in vivo at 2 mg/kg / change in vivo at 2 mg/kg: 2.0 mg/kg p.o.; for change in vivo at 0.5 mg/kg / change in vivo at 1 mg/kg / change in vivo at 2 mg/kg: read-out: variations on heart rate
[3] = 0.5 mg/kg oral once per day, SHR, 1 hour after the administration, read-out: Maximum blood pressure reduction, 1st-day administration
[4] = 0.5 mg/kg oral once per day, SHR, 1 hour after the administration, read-out: Maximum blood pressure reduction, 7th-day administration
[5] = 0.5 mg/kg oral once per day, SHR, 1 hour after the administration, read-out: Maximum blood pressure reduction, 14th-day administration
[6] = 1.0 mg/kg oral once per day, SHR, 1 hour after the administration, read-out: Maximum blood pressure reduction, 1st-day administration
[7] = 1.0 mg/kg oral once per day, SHR, 1 hour after the administration, read-out: Maximum blood pressure reduction, 7th-day administration
[8] = 1.0 mg/kg oral once per day, SHR, 1 hour after the administration, read-out: Maximum blood pressure reduction, 14th-day administration
[9] = 2.0 mg/kg oral once per day, SHR, 1 hour after the administration, read-out: Maximum blood pressure reduction, 1st-day administration
[10] = 2.0 mg/kg oral once per day, SHR, 1 hour after the administration, read-out: Maximum blood pressure reduction, 7th-day administration
[11] = 2.0 mg/kg oral once per day, SHR, 1 hour after the administration, read-out: Maximum blood pressure reduction, 14th-day administration
[12] = renal artery-ligated rat, result in words

| SMILES | change in vivo at 0.5 mg/kg [1] | inhibition in vivo at 0.5 mg/kg [1] | change in vivo at 1 mg/kg [1] | inhibition in vivo at 1 mg/kg [1] | change in vivo at 2 mg/kg [1] | inhibition in vivo at 2 mg/kg [1] | inhibition in vivo at 0.5 mg/kg [2, 3] | inhibition in vivo at 0.5 mg/kg [2, 4] | inhibition in vivo at 0.5 mg/kg [2, 5] | inhibition in vivo at 1 mg/kg [2, 6] | inhibition in vivo at 1 mg/kg [2, 7] | inhibition in vivo at 1 mg/kg [2, 8] | inhibition in vivo at 2 mg/kg [2, 9] | inhibition in vivo at 2 mg/kg [2, 10] | inhibition in vivo at 2 mg/kg [2, 11] | inhibition in vivo at 0.5 mg/kg (normal rats) | inhibition in vivo at 1 mg/kg (normal rats) | inhibition in vivo at 2 mg/kg (normal rats) | change in vivo at 0.5 mg/kg (normal rats) | change in vivo at 1 mg/kg (normal rats) | other results |
| --- | --- | --- | --- | --- | --- | --- | --- | --- | --- | --- | --- | --- | --- | --- | --- | --- | --- | --- | --- | --- | --- |
| CCOc1nc2cccc(C(=O)OCc3oc(=S)oc3C)c2n1Cc1ccc(-c2ccccc2-c2noc(=O)[nH]2)cc1 [QR01013] | -6 ± 4% | 16 ± 3% | -8 ± 3% | 25 ± 4.5% | -10 ± 5% | 34 ± 7.1% | 14 ± 5.9% | 15 ± 7.1% | 17 ± 5.8% | 24 ± 5.8% | 28 ± 6% | 27 ± 6.4% | 34 ± 5.9% | 38 ± 5.7% | 39 ± 7.1% | 4.2 ± 2.7% | 6.2 ± 2.3% | 3.4 ± 4.2% | -3 ± 4% | 5% | change in vivo at 2 mg/kg (normal rats): -5 ± 4% |
| CCOc1nc2cccc(C(=O)OCOC(=O)OCc3nc(C)c(C)nc3C)c2n1Cc1ccc(-c2ccccc2-c2noc(=O)[nH]2)cc1 [QR01017] |  |  |  |  |  |  |  |  |  |  |  |  |  |  |  |  |  |  |  |  | Maximum blood pressure reduction ([1]; rat, in vivo): 25 ± 6.2% and 38 ± 3.5% and 46 ± 2.6%; blood pressure reduction at 24 hours after the administration ([1]; rat, in vivo): 20%; blood pressure reduction effect compared with Azilsartan medoxomil ([1]; rat, in vivo): obviously superior to that of the Azilsartan medoxomil positive drug; lasting time of the blood pressure reduction effect compared with Azilsartan medoxomil ([1]; rat, in vivo): close to that of Azilsartan medoxomil; Heart Rate (effect on reducing heart rate) ([2]; rat, in vivo): 18 ± 5% and 24 ± 4% and 29 ± 6%; Maximum blood pressure reduction, 1st-day administration ([2]; rat, in vivo): 22 ± 5.0% and 34 ± 4.4% and 36 ± 4.5%; Maximum blood pressure reduction, 7th-day administration ([2]; rat, in vivo): 22 ± 3.3% and 35 ± 3.9% and 38 ± 2.1%; Maximum blood pressure reduction, 14th-day administration ([2]; rat, in vivo): 23 ± 3.9% and 36 ± 3.2% and 38 ± 3.6%; reduction effects on the heart rate of SHR rats ([2]; rat, in vivo): significant reduction effects on the heart rate; Variations on heart rate (normal rats; rat, in vivo): −5 ± 2% and −2 ± 4% and −4 ± 3%; blood pressure reduction at 8 h after the administration (normal rats; rat, in vivo): 2.9 ± 4.5% and 3.3 ± 4.1% and 5.1 ± 3.2% |
| CCOc1nc2cccc(C(=O)OC(C)OC(=O)OCc3nc(C)c(C)nc3C)c2n1Cc1ccc(-c2ccccc2-c2noc(=O)[nH]2)cc1 (stereo not shown) [QR01019] | 12 ± 4% | 24 ± 4% | 25 ± 8% | 38 ± 3.8% | 28 ± 6% | 45 ± 7.5% | 16 ± 6.2% | 15 ± 7.9% | 18 ± 4.5% | 36 ± 6.3% | 38 ± 4.6% | 35 ± 6.7% | 42 ± 4.8% | 46 ± 6.7% | 48 ± 8.6% | 2.4 ± 3% | 4.2 ± 3.5% | 4.5 ± 6.5% | -5 ± 5% | -4 ± 6% | blood pressure reduction at 24 hours after the administration ([1]; renal artery-ligated rat, 24 hours after the administration, dose not stated): 26%; blood pressure reduction effect compared with Azilsartan medoxomil [1, 12]: obviously superior to that of the Azilsartan medoxomil positive drug; lasting time of the blood pressure reduction effect compared with Azilsartan medoxomil [1, 12]: close to that of Azilsartan medoxomil; inhibition in vivo at 0.5 mg/kg ([2]; 0.5 mg/kg oral, SHR, read-out: Heart Rate (effect on reducing heart rate)): 20 ± 6%; inhibition in vivo at 1 mg/kg ([2]; 1.0 mg/kg oral, SHR, read-out: Heart Rate (effect on reducing heart rate)): 18 ± 4%; inhibition in vivo at 2 mg/kg ([2]; 2.0 mg/kg oral, SHR, read-out: Heart Rate (effect on reducing heart rate)): 29 ± 2%; blood pressure reduction effect compared with Azilsartan medoxomil ([2]; SHR, result in words): obviously superior to that of the Azilsartan medoxomil positive drug; reduction effects on the heart rate of SHR rats ([2]; during the whole administration, result in words): significant reduction effects on the heart rate; change in vivo at 2 mg/kg (normal rats): 8% |
